Data taken from patent US20130023504A1, “Modulation of Prostaglandin/Cyclooxygenase Metabolic Pathways” (HUNTER-FLEMING LIMITED, priority 2006, published 2013).
Marks after values point to notes of the source that are not given here.

Experiments:
[1] = tested on: m-PGES1 mRNA; assay: m-PGES1 mRNA in human PBMC with and without TNF-α, quantitative RT-PCR; format: cell-based
Protocol: Whole blood was collected from donors in EDTA-supplemented pouches at the Etablissement Français du Sang (Brest, France). The PBMC were isolated then from whole blood under sterile conditions within 36 hours after collection. Gradient density centrifugation was carried out on Ficoll (Eurobio). After washing in RPMI 1640 medium (Eurobio), cells were suspended in RPMI 1640 medium supplemented with 10% heat-inactivated fetal calf serum (Eurobio), 2 mM glutamine (D. Dutscher), 100 U of penicillin/ml (D. Dutscher), and 100 μg of streptomycin/ml (D. Dutscher). Monocytes were selected by plastic adherence for 1 h and approximately 10^7 cells were plated in 6-well tissue culture plates (3 mL medium per well). All incubations were performed in a humidified incubator at 37° C. and 5% CO2. Cells were recovered and dispersed in 2 ml fresh incubation medium supplemented with either 7β-hydroxyEPIA, 7β-hydroxy-DHEA, or 7α-hydroxy-DHEA (in 20 μL ethanol) in the presence or absence of 0.01 μg/mL TNF-α (Sigma-Aldrich). Control incubations contained 20 μl ethanol but no steroid. Supernatants were collected after 4 h and 24 hours incubations for measurement of their PG contents and cells were used for subsequent RNA isolation. A single step extraction method using the Trizol Reagent (Invitrogen, Cergy-Pontoise, France) provided total RNA.
cDNAs were synthesized from TURBO DNase I—treated RNA (Ambion, Huntingdon, UK) using the Superscript first strand synthesis system kit (Invitrogen). RT-PCR amplification mixtures (50 μL) contained 2.5× RealMaster Mix/20×SYBR solution (11.25 μL) (Eppendorf, Le Pecq, France) and 200 nM forward and reverse primers. Reactions were run on a RealPlex ep gradient S mastercycler (Eppendorf). The cycling conditions were 10 minutes at 95° C. and 45 cycles at 95° C., 55° C. and 68° C. for 15 seconds, 30 seconds and 30 seconds, respectively. Each assay included a standard curve of four serial dilution points of control cDNA. The HPRT1 housekeeping gene was used for quantification. All oligonucleotide primers (Table 2) were synthesized by Genecust/Distribio (Evry, France). The specificity of the amplified product was monitored by examining the melting curve of the product and confirmed by analysis on agarose gel electrophoresis.
All assays were carried out in triplicate and results were plotted as mean±S.E.M. One-way analysis of variance was performed followed by Duncan's multiple range tests in order to compare the differences between groups. Differences were considered statistically significant when p<0.05.

[2] = tested on: human peripheral blood mononuclear cells; assay: Prostaglandin (PGD2, PGE2, 15d-PGJ2) production by human peripheral blood mononuclear cells with/without TNF-α, EIA (Example 2); format: cell-based
Protocol: Mononuclear cells (monocytes and lymphocytes) were prepared by subjecting 48 ml of whole human blood to Ficoll/hypaque density centrifugation. Blood was layered on top of the ficoll (density=1.077 g/ml) and centrifuged at 400 g for 1 hour (22° C.), after which cells at the interphase were removed by pipette and transferred to fresh tubes. Tubes were filled with RPMI 1640 culture medium (2 volumes) thoroughly mixed and then centrifuged at 400 g for 5 minutes (22° C.). The supernatant was discarded and the cell pellet was re-suspended in RPMI 1640 culture medium and the volume adjusted to give the appropriate number of cells per incubation as indicated in the results section below. Cells were incubated in sterile plastic 1.5 ml tubes in a final volume of 1 ml RPMI 1640 medium for 18 hours at 37° C., 5% CO2 in air and 100% humidity. 7β-OH-EPIA was then added and cells incubated for a further hour at 37° C. before adding recombinant human Tumour Necrosis Factor-α (TNF-α) and incubations continued for a further 3 hours. 7β-OH-EPIA was prepared in dimethyl sulphoxide (DMSO), all remaining agents were prepared in RPMI 1640 medium. The requisite controls contained either medium or the same concentration of DMSO which was always <0.1% v/v. Incubations were terminated by centrifuging tubes at 11,000 g for 30 seconds at 22° C. and transferring the supernatants to fresh 1.5 ml tubes. Samples were then either processed immediately for PGD2 estimation as described below or stored at −20° C. prior to PGE2 or 15d-PGJ2 measurement.
Prostaglandin production by human monocytic cells in response to 7β-OH-EPIA in either the absence or presence of stimulation with TNF-α was determined by measuring the extracellular levels of eicosanoid using commercially available EIA kits.
PGD2 cannot be assayed directly from cell supernatants because it is chemically unstable and rapidly degrades to a number of J series prostaglandins including, PGJ2, Δ^12-PGJ2, and 15-deoxy-Δ^12,14-PGJ2. In order to circumvent this problem, unstable PGD2 was chemically treated to give a stable derivative, in this case prostaglandin D2-Methoxamine (PGD2-MOX) which was be stored for subsequent analysis. Immediately following termination of incubations, 100 μl of sample supernatant was added to 1.5 ml tubes containing 100 μl of a Methyl Oximating Reagent (methoxy)amine hydrochloride (MOX-HCl) and sodium acetate dissolved in a 10:90 v/v, ethanol/water solution. Tubes were then placed in a water bath and the reaction allowed to proceed for 30 minutes at 60° C. At the end of this period samples were stored at −80° C. Levels of PGD2 were subsequently estimated using Cayman Chemical's Prostaglandin D2-MOX EIA Kit (Cat. No. 512011).
Extracellular levels of PGE2 were estimated using R & D Systems' Parameter PGE2 EIA Kit according to the manufacturer's instructions for the high sensitivity protocol.
Extracellular levels of 15d-PGJ2 were estimated using Assay Designs' Correlate-EIA Prostaglandin 15-deoxy-Δ^12,14-prostaglandin J2 EIA Kit (Cat. No. 900-023) according to the manufacturer's instructions.
Results are expressed as the mean±s.d. for n=3 incubations. An unpaired Students t-Test was used to determine the probability (P) that two sets of data were different from each other. The difference was considered to be significant when P<0.05. Statistical calculations were carried out on an Apple Macintosh computer using the software package Statview, from Abacus Concepts Inc.

CC12CCC3C(C1CCC2=O)[C@@H](O)C[C@H]1C[C@@H](O)CCC31C (stereo partly drawn) [Compound 7β-OH-EPIA, 7β-hydroxy-EPIAndrosterone]
mPGES1 (mRNA), mRNA production relative to controls ([1]; 1 nM + TNF-α (10 ng/mL), 4 h): 1.11 ± 0.235 | mPGES1 (mRNA), mRNA production relative to controls ([1]; 1 nM + TNF-α (10 ng/mL), 24 h): 21.6 ± 4.28^ | mPGES1 (mRNA), mRNA production relative to controls ([1]; 1 nM, 4 h, without TNF-α): 0.76 ± 0.053^b | mPGES1 (mRNA), mRNA production relative to controls ([1]; 1 nM, 24 h, without TNF-α): 1.77 ± 0.324^a | mPGES1 (mRNA), mRNA production relative to controls ([1]; 10 nM + TNF-α (10 ng/mL), 4 h): 1.15 ± 0.183 | mPGES1 (mRNA), mRNA production relative to controls ([1]; 10 nM + TNF-α (10 ng/mL), 24 h): 6.29 ± 1.131^d | mPGES1 (mRNA), mRNA production relative to controls ([1]; 10 nM, 4 h, without TNF-α): 0.94 ± 0.067 | mPGES1 (mRNA), mRNA production relative to controls ([1]; 10 nM, 24 h, without TNF-α): 3.61 ± 0.662^a | mPGES1 (mRNA), mRNA production relative to controls ([1]; 100 nM + TNF-α (10 ng/mL), 4 h): 1.29 ± 0.323 | mPGES1 (mRNA), mRNA production relative to controls ([1]; 100 nM + TNF-α (10 ng/mL), 24 h): 6.79 ± 2.898^d | mPGES1 (mRNA), mRNA production relative to controls ([1]; 100 nM, 4 h, without TNF-α): 0.71 ± 0.058^b | mPGES1 (mRNA), mRNA production relative to controls ([1]; 100 nM, 24 h, without TNF-α): 2.63 ± 0.475^a | effect on TNF-α-induced PGD2 biosynthesis ([2]; 0.1 nM-100 nM, TNF-α (0.5 μg/ml)): no effect | increase in 15d-PGJ2 production ([2]; 0.1 nM-1000 nM, in the presence of TNF-α, vs respective control): 2-2.5 fold | increase in 15d-PGJ2 levels ([2]; 0.1 nM-1000 nM, without TNF-α, vs DMSO controls): 9-12 fold | 15d-PGJ2 levels in cell supernatants ([2]; 0.1 nM, 4 hours, without TNF-α): 506 ± 101 pg/mL | 15d-PGJ2 levels in cell supernatants ([2]; 0.1 nM, TNF-α (10 ng/ml)): 348 ± 48 pg/mL | PGE2 levels compared to DMSO controls ([2]; 1 nM-1000 nM, 4 hours, without TNF-α): not statistically significantly different | 15d-PGJ2 levels in cell supernatants ([2]; 1 nM, 4 hours, without TNF-α): 539 ± 51 pg/mL | 15d-PGJ2 levels in cell supernatants ([2]; 1 nM, TNF-α (10 ng/ml)): 334 ± 24 pg/mL | PGE2 levels in cell supernatants ([2]; 1 nM, TNF-α (10 ng/ml)): 75 ± 25 pg/mL | 15d-PGJ2 levels in cell supernatants ([2]; 10 nM, 4 hours, without TNF-α): 520 ± 45 pg/mL | 15d-PGJ2 levels in cell supernatants ([2]; 10 nM, TNF-α (10 ng/ml)): 356 ± 85 pg/mL | PGE2 levels in cell supernatants ([2]; 10 nM, TNF-α (10 ng/ml)): 82 ± 23 pg/mL | 15d-PGJ2 levels in cell supernatants ([2]; 100 nM, 4 hours, without TNF-α): 450 ± 133 pg/mL | PGD2 levels in cell supernatants ([2]; 100 nM, 4 hours, without TNF-α): 102 ± 24 pg/mL | 15d-PGJ2 levels in cell supernatants ([2]; 100 nM, TNF-α (10 ng/ml)): 406 ± 30 pg/mL | PGE2 levels in cell supernatants ([2]; 100 nM, TNF-α (10 ng/ml)): 74 ± 12 pg/mL | 15d-PGJ2 levels in cell supernatants ([2]; 1000 nM, 4 hours, without TNF-α): 590 ± 84 pg/mL | 15d-PGJ2 levels in cell supernatants ([2]; 1000 nM, TNF-α (10 ng/ml)): 318 ± 100 pg/mL | effect on TNF-α-induced PGE2 production ([2]; 1000 nM, TNF-α (10 ng/ml)): no effect | PGD2 levels in cell supernatants ([2]; 1000 nM, TNF-α (0.5 μg/ml)): 164 ± 31 pg/mL
